Tests used:
[1] = tested on: HIV-1B41 Env pseudotyped HIV-1; assay: Single-round HIV-1 infection assay (luciferase reporter); conditions: for IC50: Human immunodeficiency virus 1, U87/CD4/CCR5, 48 h, read-out: IC50 against HIV-1B41 Env pseudotyped HIV-1; for IC50 against HIV-1B41 Env pseudotyped HIV-1: U87.CD4.CCR5 cells, single-round infection, 48 h
Procedure: HEK293T cells were plated in 6-well plates with density of 1 × 10^6 cells/well. After 24 h, the two vectors (vector 1 and vector 2) were co-transfected in a 3:4 ratio, respectively [16]. Vector 1 is an HIV-1 pNL4-3-Luc+R-E plasmid with two main features. The vector contains a premature stop codon in the Env gene and replaces HIV-1 Nef gene with the luciferase-reporter gene [19]. Vector 2 is a plasmid expressing the HIV-1B41 gp160 Env [20]. Transient transfections of these vectors were carried out via calcium phosphate (ProFection Mammalian Transfection System, Promega, Madison, WI) for 5 h in DMEM without supplements. After the 5 h incubation period, the medium was replaced with fresh culture media. Seventy-two hours post-transfection, virus was collected by filtering supernatants. The result was single-round infectious virus with pseudotyped envelopes that contained a luciferase reporter [16]. This was aliquoted and stored at −80 °C.
The single-round HIV-1 infection assay was performed as previously described [19, 21, 22]. U87.CD4.CCR5 cells were seeded in Greiner Bio-one 96-well luminometer-compatible tissue culture plates with a density of 1.2 × 10^4 cells/well. After 24 h, compounds underwent serial dilutions in DMEM. DMSO was used as a vehicle control (Sigma). These dilutions were mixed with thawed pseudotyped HIV-1 virus (normalized to p24 content) and added to the U87 cells 100 µL/well. The plates were incubated for 48 h at 37 °C. Post-incubation, the medium was aspirated from each well, and 50 μL/well of 1X luciferase lysis buffer (Promega) was added. The plates were placed at −80 °C for one freeze-thaw cycle. After thawing, 50 µL/well of the luciferase assay substrate (Promega) was added and the luciferase activity of each well was measured by a GloMax 96 microplate luminometer (Promega).

[2] = Metabolic stability in human liver microsomes; conditions: for k (rate of metabolism): 1.0 µM compound, 0.5 mg/mL HLM, NADPH, 37 °C; for Eh (hepatic extraction ratio): (Clh/Q) × 100; for Clapp: extrapolated for a human with scaling factors; for Clh: extrapolated, Q = 20 mL/min/kg; for half-life at 1 µM / microsomal CLint at 1 µM: human, human liver microsomes, pH 7.4
Procedure: Metabolic stability analysis was performed as outlined in Lu et al..
Preparation of solutions. Test compound was weighed and dissolved in 100% DMSO to get 10 mM stock solution. The stock solution was diluted to 100 μM with mixture of acetonitrile and H2O (1:1). The final concentrations of DMSO and acetonitrile were equal to or less than 0.1%. […]
Microsomal incubation. Liver microsomes incubations were conducted in duplicate in 96-well plates. […] Reactions were terminated at various time points (0, 5, 10, 20, 40 min) by adding 150 µL of ice-cold methanol and acetonitrile (1:1, v/v) containing the internal standard.
LC-MS/MS analysis: A Waters liquid chromatographic system was used. […] The flow rate was maintained at 0.6 mL/min. Detection was performed on an API4000 Q-Trap mass spectrometer equipped with TurboIonSpray (ESI) Interface (Applied Biosystems, Concord, Ontario, Canada). Analyst 1.5 software packages (Applied Biosystems) were used to control the LC-MS/MS system, and for data acquisition and processing.
Data analysis: The peak area ratio of a test compound to internal standard was plotted as a percentage of the relevant zero time point control (%remaining) for each reaction. The rate of metabolism (k) is the slope of the linear regression from log percentage remaining versus incubation time.

[3] = Cellular toxicity (CCK-8 cell viability); conditions: human, U87.CD4.CCR5 cells
U87.CD4.CCR5 cells = assay: Cellular toxicity (CCK-8 cell viability)
CYP3A4 = tested on: CYP3A4; set-up: method as in doi:10.1093/ofid/ofz360.2178; conditions: cited from earlier work

Structure (SMILES)	IC50 [1] [nM]	k (rate of metabolism) [2]	Eh (hepatic extraction ratio) [2] [%]	Clapp [2] [mL/min/kg]	Clh [2] [mL/min/kg]	half-life at 1 µM [2] [min]	microsomal CLint at 1 µM [2] [µL/min/mg]	CC50 at 48 h [3] [µM]	Toxicity in words (U87.CD4.CCR5 cells)	Metabolic stability compared with temsavir/BMS-626529 ([2]; human liver microsome half-lives)	IC50 against HIV-1B41 Env pseudotyped HIV-1 [1]	Primary metabolizing isoform as determined (CYP3A4)
COc1cnc(-n2cnc(C)n2)c2[nH]cc(C(=O)C(=O)N3CC4CN(C(=O)c5ccccc5)CC4C3)c12 (centres unmarked) [SC11]	2 ± 0.2	0.07253	87.49	139.887	17.498	9.6	145	–	–	–	–	–
COc1cnc(-n2cnc(C)n2)c2[nH]cc(C(=O)C(=O)NC3C4CN(C(=O)c5ccccc5)CC43)c12 (centres unmarked) [SC28]	–	0.00479	31.61	9.245	6.322	145	9.6	> 400	very low toxicities	more than twice the metabolic stability of temsavir/BMS-626529	–	–
COc1cnc(-n2cnc(C)n2)c2[nH]cc(C(=O)C(=O)N3CC(C)N(C(=O)c4ccccc4)C(C)C3)c12 (centres unmarked) [SC54, 1-(4-benzoyl-3,5-dimethylpiperazin-1-yl)-2-(4-methoxy-7-(3-methyl-1H-1,2,4-triazol-1-yl)-1H-pyrrolo[2,3-c]pyridin-3-yl)ethane-1,2-dione]	0.41 ± 0.061	0.02223	68.19	42.88	13.64	31.2	44.5	–	–	–	low nanomolar range	–
C[C@]12CC[C@H]3[C@@H](CCC4=CC(=O)CC[C@@]43C)[C@@H]1CC[C@@H]2O [Testosterone, reference compound]	–	0.05134	–	99.005	16.639	–	–	–	–	–	–	–
COc1cnc(-n2cnc(C)n2)c2[nH]cc(C(=O)C(=O)N3CCN(C(=O)c4ccccc4)CC3)c12 [BMS-626529, reference compound]	0.05 ± 0.006	–	–	–	–	–	–	–	–	–	–	CYP3A4
COc1cnc(-n2cnc(C)n2)c2[nH]cc(C(=O)C(=O)N3C[C@@H]4[C@H](C3)[C@H]4NC(=O)c3ccccc3)c12 [SC46]	91.5	0.0076	42.28	14.657	8.455	91.2	15.2	> 1000	very low toxicities	–	low nanomolar range	–
COc1cnc(-n2cnc(C)n2)c2[nH]cc(C(=O)C(=O)N3Cc4cnn(-c5ccccc5)c4C3)c12 [SC12]	6 ± 0.3	0.1058	91.0753	204.1	18.22	6.55	212	–	–	–	–	–
COc1cnc(-n2cnc(C)n2)c2[nH]cc(C(=O)C(=O)N3CC(CCC(=O)c4ccccc4)C3)c12 [SC15]	7 ± 0.1	0.05268	83.55	101.588	16.710	13.2	105	–	–	–	–	–

From PMC7144373, “Composition and Orientation of the Core Region of Novel HIV-1 Entry Inhibitors Influences Metabolic Stability” (Molecules, 2020)
